The text below walks through data of PubChem BioAssay AID179 (DTP/NCI, 2004).

Several values for one entry are separate records, joined by “and”; a condition that tells them apart may be missing. Identical values can stand only once. Activity calls are given as the source filed them.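 The calls were made as follows: active = compounds giving half or more protection of infected cells from virus-caused growth loss, again on retest; inactive = the rest.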 A value given as a limit tells only on which side of the number the result lay.

The experiment relates to CEM cells HIV-1 protection, formazan growth assay. In words: NCI AIDS Antiviral Assay. The following applies: for IC50: measured here: growth of uninfected CEM cells. Summed up:
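Steps: treat uninfected and HIV-1-infected human CEM cells at five drug levels; quantify growth by soluble formazan; retest any compound reaching 50% protection; classify actives from the retest.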

In the case of `CCC(=O)CCC1=Nc2nnc(CCCCc3nnc4n3C(=O)C(CCC(=O)CC)=N4)n2C1=O`, the EC50 – broadly, the concentration needed to bring the measured effect to its halfway point – is 427 µM and the IC50 (as a rule, the midpoint of a concentration-inhibition curve) was 537 µM.

Consider `CC1(C)C2CCC3(C2)CS(=O)(=O)N2OC231` (configuration not stated), for which the EC50 was greater than 219 µM and the IC50 came out at 120 µM.

Consider `Cc1cn(C2OCC(CO)C2F)c(=O)[nH]c1=O` (configuration not stated), for which the EC50 was greater than 200 µM and the IC50 is greater than 200 µM.

As for `CN(C)CC/C=C1/c2ccccc2Sc2ccc(Cl)cc21`, the EC50 was greater than 200 µM and the IC50 amounted to 27.5 µM.

`CC(=O)/C=C1/C(=O)C(CC(C)C)=C1CC(C)C`: the EC50 was 141 µM and the IC50 was greater than 200 µM.

As for `CCOC(=O)Cc1cnc(NC(NC(=O)CC)(C(F)(F)F)C(F)(F)F)s1`, the EC50 was greater than 200 µM and the IC50 is greater than 200 µM.

As to `CC(C)=Cc1cc(C(=O)NCCNC(=O)c2cc(C=C(C)C)nc(NC#N)n2)nc(NC#N)n1`, the EC50 is greater than 5.89 µM and the IC50 was greater than 5.89 µM.

As to `COc1cccc(NC(=O)CSc2nnc(Cc3ccccc3)o2)c1`, the EC50 is greater than 100 µM and the IC50 is greater than 100 µM.

Regarding `CC1(C)CCC(C)(C)c2cc(NC(=O)c3ccc(C(=O)O)cc3)ccc21`, the EC50 was greater than 200 µM and the IC50 was determined as 95.5 µM.

In the case of `NCC=C1C2CC3CC(C2)CC1C3`, the outcome was inactive.

In the case of `NC1=NS(=O)(=O)Nc2nc(-c3ccc(Cl)cc3)[nH]c21`, the EC50 was greater than 200 µM and the IC50 was greater than 200 µM.

With `CCCCCC1c2c(cc(C)[nH]c2=O)OC(O)C1CCCC` (configuration not stated), the EC50 is greater than 126 µM and the IC50 is greater than 126 µM.

Regarding `Cc1ccc(S(=O)(=O)N2CCC(C(=O)O)(c3ccccc3)CC2)cc1`, the EC50 was greater than 182 µM and the IC50 was greater than 182 µM.

`CCOCCCCS(=O)(=O)O`: the EC50 is greater than 200 µM and the IC50 was greater than 200 µM.

For `CC[C@@]1(C[C@H]2C[C@@]3(C(=O)OC)c4[nH]c5ccccc5c4CCN3C2=S)COC2(CCCCC2)O1`, the EC50 is greater than 200 µM and the IC50 is greater than 200 µM.

Consider `CCOC(=O)C(C)(NC(=O)c1ccc(NCc2ccc3nc(NC(=O)c4ccccc4)nc(NC(=O)c4ccccc4)c3c2)cc1)C(=O)OCC`, for which the EC50 is greater than 50.1 µM and the IC50 is 32.4 µM.

Consider `CC(=N/NC(=S)N1CCCCC1)/C(C)=N\NC(=S)N1CCCCC1`, for which the EC50 was greater than 200 µM and the IC50 turned out to be 2.24 µM.

`CN(C)P(=O)(N(C)C)N(C)C.[CH3][Sn]([CH3])([Cl])[Cl]`: the outcome was inactive.

Consider `CC(=O)O.[Ag]`, for which the EC50 was greater than 64.6 µM and the IC50 came to 18.2 µM.

With `COC1=C(C(=O)OC(C)(C)C)C23CCCCC2(C(C(=O)OC(C)(C)C)=C(OC)C3C(=O)OC(C)(C)C)C1C(=O)OC(C)(C)C` (configuration not stated), the outcome was inactive.

Take `Cc1ccc2oc(-c3nnc(N)s3)cc(=O)c2c1`: the EC50 was greater than 28.2 µM and the IC50 is greater than 28.2 µM.

As to `Cn1c(=O)c([N+](=O)[O-])c2[nH]ncn2c1=O`, the EC50 was greater than 200 µM and the IC50 is greater than 200 µM.

For the compound `Cn1c2ccccc2c2nc3ccccc3c(Cl)c21`, the EC50 was greater than 200 µM and the IC50 amounted to 135 µM.

As to `COC(=O)N[C@@H]1C[C@H]2CC[C@]1(O[Si](C(C)C)(C(C)C)C(C)C)C(=O)C2`, the EC50 is greater than 200 µM and the IC50 was 16.6 µM.

On to `COC(=O)C(COC(C)=O)NC(=O)/C=C/c1ccc(O)c(OC(C)=O)c1` (configuration not stated), for which the EC50 is greater than 200 µM and the IC50 worked out at 10 µM.

On to `Cc1cccc(/C=C(\C#N)C(=O)c2ccccc2)c1`, for which the EC50 is greater than 363 µM and the IC50 amounted to 178 µM.

As to `COc1ccc(/C=C/C(=N/NC(=O)N/N=C(/C=C/c2ccc(OC)cc2)C(C)(C)CN2CCCCC2)C(C)(C)CN2CCCCC2)cc1`, the EC50 was greater than 200 µM and the IC50 was 2.09 µM.

As to `O=C(c1ccccc1)C(O)(c1ccccc1)C(c1ccccc1)c1ccccc1` (configuration not stated), the EC50 is greater than 26.3 µM and the IC50 was greater than 26.3 µM.

As for `CC(C)(C)N=NC(C)(C)N=C=O`, the EC50 is greater than 251 µM and the IC50 is greater than 251 µM.

In the case of `COc1cc2c(cc1O)C1(Cc3ccc4c(c3[C@@H]1O)OCO4)N(C)CC2` (some centres not stated), the EC50 was greater than 141 µM and the IC50 is greater than 141 µM.

Turning to `COc1cc(NCCN2CCN(CCNc3cc(OC)cc4cccnc34)CC2)c2ncccc2c1`, the EC50 is greater than 50.1 µM and the IC50 was 45.7 µM.

With `Nc1nc(Cl)cc(NCC2(CO)CC(Cc3ccccc3)C2)n1` (configuration not stated), the EC50 was greater than 20 µM and the IC50 was 0.174 µM.

In the case of `O=[N+]([O-])/N=c1/nc2scc(-c3ccc([N+](=O)[O-])cc3)n2s1`, the EC50 was greater than 200 µM and the IC50 stood at 29.5 µM.

For `COc1ccc(C(c2c(O)c3ccccc3oc2=O)N2CCCC2)c(OC)c1` (configuration not stated), the EC50 is greater than 200 µM and the IC50 was 95.5 µM.

With `CCOC(=O)/C(C#N)=N\Nc1ccc(-n2c(C)nc3ccccc3c2=O)cc1`, the EC50 was greater than 200 µM and the IC50 turned out to be 89.1 µM.

Take `CC(C)(C)OC(=O)NCCCCC(NC(=O)OCc1ccccc1)C(N)=O` (configuration not stated): the EC50 was greater than 200 µM and the IC50 was greater than 200 µM.

As to `C=C1C(=O)OC2C1CC[C@H](C)C13OC(=O)CC1[C@@]23C` (some centres not stated), the result was inactive.

Consider `CC1=N/C(=C/c2ccc3c(c2)OCO3)C(=O)O1`, for which the EC50 was greater than 155 µM and the IC50 came to 105 µM.

Consider `COc1ccc(-c2c(C#N)c(N)n(C3OC(COC(C)=O)C(OC(C)=O)C(OC(C)=O)C3OC(C)=O)c(=S)c2C#N)cc1` (configuration not stated), for which the EC50 was greater than 200 µM; the IC50 was 83.2 µM and 115 µM.

Turning to `C/C(=N\O)c1ccc2c3c(ccc([N+](=O)[O-])c13)CC2`, the EC50 is greater than 200 µM and the concentration for half-maximal inhibition (IC50) is 46.8 µM.

For `CN1c2ccccc2Sc2c1n[nH]c2-c1ccccc1`, the EC50 was greater than 49 µM and the IC50 is 20.9 µM.

Consider `N#Cc1c(C#N)c(SSc2c(C#N)c(C#N)c(N)n2-c2ccccc2)n(-c2ccccc2)c1N`, for which the EC50 was greater than 20 µM and the IC50 was determined as 1.95 µM.

Turning to `COC(=O)C(=O)C(C(=O)OC)C(=O)C(=O)Nc1cc(Cl)c(C)cc1S(=O)(=O)O` (configuration not stated), the EC50 is greater than 575 µM and the IC50 is greater than 575 µM.

As to `N#Cc1c(NC(=S)NC(=O)c2ccccc2)nc2c(c1-c1ccccc1)CCC2`, the EC50 is greater than 100 µM and the IC50 was 93.3 µM.

On to `O=[N+]([O-])c1ccc(-n2nnc(C3=NCCN3)c2-c2ccccc2)cc1`, for which the EC50 is greater than 30.2 µM and the IC50 is greater than 30.2 µM.

In the case of `COc1cc(/C=C2\N=C(C)N(n3c(-c4ccccc4)nc4ccccc4c3=O)C2=O)cc(OC)c1OC`, the EC50 is greater than 200 µM and the IC50 is 38.9 µM.

On to `COC=C1C(=O)OC(C)(C)OC1=O`, for which the EC50 is 28.8 µM and the IC50 is 107 µM.

Consider `COC(=O)C12CC(c3ccccc31)C1C(=O)OC(=O)C12` (configuration not stated), for which the EC50 was greater than 132 µM and the IC50 was greater than 132 µM.

On to `[O-][N+]1=C2CCC/C(=N/O)C2(O)C2CCCCC21N1CCOCC1` (configuration not stated), for which the EC50 was greater than 200 µM and the IC50 is greater than 200 µM.

With `COC(=O)c1cc(=O)n(-c2ccc3nn(C)nc3c2)cc1C(=O)OC`, the EC50 was greater than 200 µM and the IC50 is greater than 200 µM.

For `Cc1c(N=Nc2cc(N=Nc3ccc(N=Nc4ccc(O)c(C(=O)O)c4)cc3)c(N)cc2N)cccc1S(=O)(=O)O`, the EC50 was 25.7 µM and the IC50 was greater than 100 µM.

For `COC(=O)CN1C(=O)c2cccc3cc(N)cc(c23)C1=O`, the EC50 is greater than 200 µM and the IC50 is greater than 200 µM.

Regarding `COc1cc(C=Nc2cc(Cl)c(N=O)c(Cl)c2)ccc1N(CCCCl)CCCCl`, the EC50 was 5.25 µM and the IC50 worked out at 22.4 µM.

With `O=C(O)CCSCc1cc(C(=O)Nc2ccc(/C=C/c3ccc(NC(=O)c4cc(CSCCC(=O)O)c5cccnc5c4O)cc3S(=O)(=O)O)c(S(=O)(=O)O)c2)c(O)c2ncccc12`, the EC50 is 1.51 µM and the IC50 amounted to 33.9 µM.

In the case of `O=[N+]([O-])c1ccc(N/N=C2/CC3=C2CCCCCCCCCC3)c([N+](=O)[O-])c1`, the EC50 is greater than 100 µM and the IC50 is greater than 100 µM.

Turning to `O=C1CC(NC(=O)C(F)(F)F)c2c1csc2Br` (configuration not stated), the EC50 was greater than 200 µM and the IC50 was determined as 115 µM.

As to `COC(=O)C1CC2c3ccccc3C1c1ccccc12` (configuration not stated), the EC50 was greater than 200 µM and the concentration for half-maximal inhibition (IC50) is greater than 200 µM.

As to `FC(F)(F)c1ccc2c(c1)N(CCCN1CCNCC1)c1ccccc1S2`, the EC50 was greater than 34.7 µM and the IC50 is 21.4 µM.

As to `Nc1nc2ccccc2n1CC(=O)NC12CC3CC(CC(C3)C1)C2`, the EC50 is greater than 79.4 µM and the IC50 was 36.3 µM.

Consider `N#Cc1sc2c(c1OC(=O)c1ccco1)c(=O)n(-c1ccccc1)c(=S)n2-c1ccccc1`, for which the EC50 is greater than 200 µM and the IC50 worked out at 12.3 µM.

Turning to `CO[C@@]12[C@@H]3N[C@@H]3CN1C1=C(C(=O)C(N3CCCC3)=C(C)C1=O)[C@@H]2COC(N)=O`, the EC50 was greater than 200 µM and the IC50 was found to be 0.631 µM.

For the compound `COc1cc2c(c(O)c1OC)c(=O)c1ccccc1n2C`, the EC50 is greater than 200 µM and the IC50 turned out to be 66.1 µM.

In the case of `O=C1NC(N2CCCCC2)=N/C1=C\c1ccco1`, the EC50 is greater than 200 µM and the IC50 is greater than 200 µM.

Regarding `COc1cc(C[C@H]2COC(=O)[C@]2(O)Cc2ccc(O)c(OC)c2)ccc1O`, the EC50 was 1.35 µM and the IC50 is 4.79 µM.

For `C=CCN(CC=C)c1nc(Cl)nc(Cl)n1`, the EC50 is greater than 200 µM and the IC50 is greater than 200 µM.

For `O=C(Nc1ccccc1C(=O)NCCCO)/C(=C/c1ccccc1O)NC(=O)c1ccccc1`, the EC50 was greater than 200 µM and the IC50 is greater than 200 µM.

As to `CC(=O)OC1CCC2(C)C(C)C(C)CCC2(O)C1O` (configuration not stated), the EC50 was greater than 200 µM and the IC50 came out at 15.1 µM.

As to `CC1=CC2CCC1(C)C/C2=C(/C)OC=O` (configuration not stated), the outcome was inactive.

As for `N#CCC1(c2ccc(Cl)cc2)NC(=O)c2ccccc21` (configuration not stated), the EC50 was greater than 200 µM and the IC50 was found to be 117 µM.

For `COC(=O)C(=O)C(C(=O)C(N)=O)c1nc2ccc(C(=O)c3ccccc3)cc2[nH]c1=O` (configuration not stated), the EC50 was greater than 85.1 µM and the IC50 is greater than 85.1 µM.

On to `O=P1(NCCCl)OCCCN1CCCl` (configuration not stated), for which the EC50 is greater than 955 µM and the IC50 was greater than 955 µM.
